According to US20030144204A1, “Akt-based inducible survival switch” (Baylor College of Medicine, priority 2001, published 2003):

What was measured:
[1] = test system: NF-κB; experiment: NF-κB/SEAP reporter assay in Jurkat-TAg cells; type: cell-based, human; conditions: R0318220 1 μM
[2] = test system: endogenous Akt and iAkt; experiment: Akt phosphorylation in Jurkat.iAkt cells after kinase inhibitor pretreatment; type: cell-based, human; conditions: 30 min inhibitor pretreatment, then AP22783 30 min
Description: Jurkat.iAkt cells were serum starved for 24 hours followed by 30 min pretreatment with PI3K inhibitors, wortmannin and LY294002, or MEK inhibitor, PD98059, as a control. After inhibitor pretreatment, AP22783 was added to the media for another 30 min to mobilize membrane recruitment of iAkt.

[3] = test system: F3-ΔPH.Akt kinase; experiment: Immunoprecipitation and in vitro Akt kinase assay (GSK3α/β crosstide); type: biochemical; conditions: Jurkat.iAkt serum starved 24 hours, treated 30 min, anti-HA immunoprecipitate
Description: Jurkat.iAktb were serum starved for 24 hours followed by treatment with AP22783 or serum for 30 min. Cells were then lysed in a lysis buffer provided with the Akt Kinase Assay kit (Cell Signaling, Beverly, Mass.), and Fpk3-ΔPH.AKT-E was immunoprecipitated with polyclonal anti-HA antibody. Antibody-antigen complexes were washed three times in lysis buffer and once in kinase buffer. In vitro kinase assays for Akt were performed using a GSK3α/β “crosstide”. The extent of crosstide phosphorylation was determined by anti-GSKα/β immunoblotting according to the manufacturer's protocol.
To further measure the induction of Akt enzymatic activity, Jurkat.iAkt cells were serum starved for 24 hours and thereafter treated with AP22783 or serum for 30 min. Chimeric F3-ΔPH.Akt.-kinase was immunoprecipitated with the anti-HA antibody and Akt kinase activity was measured using an in vitro kinase assay that uses a GSK3α/β “crosstide” as a substrate. The level of phosphorylated GSK3 crosstides was determined by immunoblotting with phospho-specific antibody against GSK3-α21/β9.

[4] = test system: caspase-3 and PARP in Jurkat.iAkt cells; experiment: Caspase-3 activation and PARP cleavage by immunoblotting
Description: Next, caspase-3 activation and PARP substrate cleavage were measured by immunoblotting.

[5] = test system: Akt (T308 or S473 site); experiment: Western blot of Akt phosphorylation in transfected 293T cells; type: cell-based, human; conditions: M-FRB12 plus F3-ΔPH.Akt, serum starved 24 hours, as early as 30 min after drug addition
Description: 293T cells seeded in 6-well plates were transiently transfected with 2 μg of different expression constructs in 6 μl FuGENE6 (Boehringer-Mannheim, Indianapolis, Ind.) in Opti-MEM-I medium for 24 hours followed by serum starvation for an additional 24 hours. Cells were then treated with different agents and harvested at different time points. After washing (2×) in ice-cold PBS, cell pellets were lysed in RIPA buffer containing protease inhibitors (CytoSignal, Irvine, Calif.). Equal amounts of protein from each sample were separated on 10% SDS-PAGE gels and transferred to PVDF membrane (Amersham Pharmacia Biotech, Piscataway, N.J.). Phospho-specific antibodies against Akt (T308 or S473 site) (Cell Signaling, Beverly, Mass.) were used for measuring Akt phosphorylation, and the signal was detected by AP-conjugated secondary antibodies (NEB, Beverly, Mass.) and CDP-Star chemiluminescence reagent (NEN life science, Boston, Mass.).
Briefly, 293T cells were transiently co-transfected with M-FRB1 2 and F3-ΔPH.Akt expression plasmids. After 24 hours, transfected cells were serum starved for another 24 hours and then treated with AP22783.

[6] = test system: Jurkat.iAkt cells; experiment: Apoptosis by propidium iodide staining and flow cytometry (hypodiploid cells); type: cell-based, human; conditions: for etoposide-induced cell death: etoposide 0.3-100 μM, 12 hours
Description: Jurkat.iAkt were serum starved for 24 hours followed by pre-treatment with AP22783 in 0, 2 or 10% FBS for 40 min. After incubation with apoptosis-inducing stimuli for the periods indicated, cells were harvested and washed twice in ice-cold PBS and fixed in 70% ethanol. Cells were stained in 50 μg/ml propidium iodide and 100 μg/mlRNase A for 30 min at 37° C., and hypodiploid cells were quantitated by flow cytometry using a Beckman-Coulter EPICS XL-MCL.
Jurkat.iAkt cells were given various apoptotic insults in the presence or absence of rapalogs. Initially, the protective effects of iAkt were studied on staurosporine (STS)-induced apoptosis. […] Following serum starvation for 24 hours, Jurkat.iAkt cells were treated with 0, 0.5, or 2.0 μM STS with or without AP22783 (400 nM) for 6 hours in the absence of serum. Cell death was monitored using propidium iodide (PI) staining and flow cytometry (FCM) by quantitation of subdiploid cells.
The effects of AP22783 treatment following PI3K inhibition of Jurkat.iAkt cell were studied.
Finally, the anti-apoptotic effects of iAkt on protection from direct DNA damaging agents were examined. The anti-tumor agent, etoposide (VP16), is widely used as a chemotherapeutic drug that works by inhibiting DNA topoisomerase II, which can induce apoptosis in a variety of cell types. […] Again, the experiments were carried out in two different culture conditions with low or high FBS levels.

**Q.** How did the “NF-κB activation by M-Akt plus PKC” value [1] turn out when `Cn1cc(C2=C(c3cn(CCCSC(=N)N)c4ccccc34)C(=O)NC2=O)c2ccccc21` [R0318220] was run?
**A.** complete inhibition of NF-κB

**Q.** Which results are given for `COc1cccc(-c2cc(=O)c3ccccc3o2)c1N` [PD98059]?
**A.** endogenous Akt phosphorylation at T308 [2]: no discernable effect; iAkt phosphorylation [2]: no discernable effect

**Q.** Which results are given for `O=C(O)COc1ccccc1O` [AP22783]?
**A.** Akt kinase activity (GSK3 crosstide phosphorylation) [3]: associated with GSK3 phosphorylation; STS-induced caspase-3 activation ([4]; with AP22783): blocked; high-dose STS-induced PARP cleavage ([4]; with AP22783): reduced; low-dose STS-induced PARP cleavage ([4]; with AP22783): blocked; phosphorylation of iAkt at S473 and T308 [5]: greatly stimulated; apoptotic cells ([6]; 2 μM STS with AP22783 400 nM, 6 hours, no serum, without background correction): 17%; PI3K inhibitor-induced cell death ([6]; AP22783 400 nM with wortmannin or LY294002, 2% or 10% FBS, 9 hours): almost totally blocked; CH-11-triggered apoptosis ([6]; AP22783 400 nM, 2% or 10% FBS, 6 hours): rescued cells from CH-11-triggered apoptosis; etoposide-induced cell death ([6]; AP22783 400 nM, high FBS): reduced etoposide-induced cell death efficiently; etoposide-induced cell death ([6]; AP22783 400 nM, low FBS): lesser, but reproducible level of protection; STS-induced toxicity (apoptosis) ([6]; low-dose STS (0.5 μM) with AP22783 400 nM, 6 hours, no serum): fully blocked

**Q.** How did the procaspase-3 level ([4]; STS at high-dose) turn out when `CN[C@@H]1C[C@H]2O[C@@](C)([C@@H]1OC)n1c3ccccc3c3c4c(c5c6ccccc6n2c5c31)C(=O)NC4` [STS, staurosporine] was run?
**A.** significant reduction of procaspase-3

**Q.** And the PARP cleavage ([4]; STS at low- and high-dose)?
**A.** dramatic PARP cleavage

**Q.** What about the apoptotic cells ([6]; 2 μM STS, 6 hours, no serum, without AP22783, without background correction) of the same compound?
**A.** 36%

**Q.** And the cell death ([6]; STS 0, 0.5 or 2.0 μM, 6 hours, no serum)?
**A.** induced cell death in a dose-response manner

**Q.** And the apoptotic cells ([6]; low-dose STS (0.5 μM), 6 hours, no serum, without AP22783)?
**A.** 19.4%
